From US11225492B2, “Heterocycles useful as anti-cancer agents” (Hangzhou Innogate Pharma Co., Ltd., priority 2015, dated 2022)
Like-named read-outs stand apart in the source and are kept apart here.

How the values were obtained:
Format in all cases: biochemical
CDK4/CycD3 = CDK4/CycD3 (Homo sapiens (Human), UniProt P11802); experiment: CDK4/CycD3 kinase Mobility Shift Assay
Description: (§1) 1. CDK2, CDK4 and CDK6 Kinase Assays:
(§2) CDK2/CycA2 and CDK6/cycD3 were assayed under buffer conditions in the presence of 50 mM HEPES (pH 7.5), 10 mM MgCl2, 0.0015% Brij-35, and 2 mM dithiothreitol, CDK4/CycD3 with buffer condition of 20 mM HEPES (pH 7.5), 10 mM MgCl2, 0.01% Triton X-100, and 2 mM dithiothreitol. Prepare compounds to 50× of the final desired highest inhibitor concentration by 100% DMSO and serial dilution in 3-fold for total of 10 concentrations. […] After assay for 60 min, 180 min, 60 min respectively at 28° C., reactions were terminated with stop solution (50 mM EDTA, 0.015% Brij-35, 0.2% Coating Reagent #3 and 100 mM HEPES (pH 7.5)). Collect conversion on Caliper EZ Reader. IC50 values were calculated by fitting the dose-response curves with Xlfit excel add-in version 4.3.1.

CDK6/cycD3 = CDK6/cycD3 (Homo sapiens (Human), UniProt Q00534); experiment: CDK6/cycD3 kinase Mobility Shift Assay; conditions: CDK6/cycD3 15 nM, ATP Km 800 μM, 60 min, 28° C.
Description: as §1, §2

CDK2/CycA2 = CDK2/CycA2 (Homo sapiens (Human), UniProt P24941); experiment: CDK2/CycA2 kinase Mobility Shift Assay; conditions: CDK2/CycA2 12 nM, ATP Km 39 μM, 60 min, 28° C.
Description: as §1, §2

HDAC-1 = HDAC-1 (Homo sapiens (Human), UniProt Q13547); experiment: HDAC-1 fluorogenic deacetylase assay; conditions: recombinant, full-length protein, Ac-peptide-AMC substrate; read-out: HDAC1 (IC50)
Description: (§3) 2. HDAC-1, HDAC-2 and HDAC-6 Assays:
(§4) The inhibitory effect of compounds on HDAC-1, HDAC-2 and HDAC-6 function was determined in vitro using an optimized homogenous assay performed in 384-well plate format. In this assay, recombinant, full-length HDAC-1, HDAC-2 or HDAC-6 protein (BPS Biosciences) was incubated with Ac-peptide-AMC with concentration in Km plot. Reactions were performed in Tris-based assay buffer and followed for fluorogenic release of 7-amino-4-methylcoumarin from substrate upon deacetylase and trypsin enzymatic activity. Fluorescence measurements were obtained using a multilabel plate reader (Synergy MX with excitation at 355 nm and emission at 460 nm). Data were analyzed on a plate-by-plate basis for the linear range of fluorescence over time. Fit the data in GraphPad Prism V5.0 software to obtain IC50 values using equation (Y=Bottom+(Top−Bottom)/(1+10^((Log IC50−X)*Hill Slope), Y is % inhibition and X is compound concentration).

HDAC-6 = HDAC-6 (Homo sapiens (Human), UniProt Q9UBN7); experiment: HDAC-6 fluorogenic deacetylase assay; conditions: recombinant, full-length protein, Ac-peptide-AMC substrate; read-out: HDAC6 (IC50)
Description: as §3, §4

[1] = CDK4/CycD3 10 nM, ATP Km 221 μM, 180 min, 28° C.

CDK6/cycD3, sequence (Q00534 whole entry, species assumed): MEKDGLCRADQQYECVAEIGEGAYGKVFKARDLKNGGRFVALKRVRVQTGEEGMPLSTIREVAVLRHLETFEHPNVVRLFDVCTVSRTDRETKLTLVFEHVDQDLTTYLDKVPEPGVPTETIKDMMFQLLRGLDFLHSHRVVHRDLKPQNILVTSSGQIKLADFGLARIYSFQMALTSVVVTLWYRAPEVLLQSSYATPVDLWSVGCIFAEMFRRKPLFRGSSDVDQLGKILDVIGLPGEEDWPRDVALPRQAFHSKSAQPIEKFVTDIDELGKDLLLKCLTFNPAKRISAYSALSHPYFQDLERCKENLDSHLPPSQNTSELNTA
CDK6/cycD3, sequence (P30281 whole entry partner, species assumed): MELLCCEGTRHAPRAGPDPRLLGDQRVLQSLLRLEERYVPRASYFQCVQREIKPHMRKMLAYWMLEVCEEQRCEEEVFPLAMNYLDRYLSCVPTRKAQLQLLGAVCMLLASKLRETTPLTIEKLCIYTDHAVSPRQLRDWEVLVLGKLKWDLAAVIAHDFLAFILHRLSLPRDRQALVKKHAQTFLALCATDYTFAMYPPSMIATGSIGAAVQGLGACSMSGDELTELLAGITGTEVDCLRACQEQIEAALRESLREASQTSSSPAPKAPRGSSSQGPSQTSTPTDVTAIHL
HDAC-1, sequence (Q13547 whole entry): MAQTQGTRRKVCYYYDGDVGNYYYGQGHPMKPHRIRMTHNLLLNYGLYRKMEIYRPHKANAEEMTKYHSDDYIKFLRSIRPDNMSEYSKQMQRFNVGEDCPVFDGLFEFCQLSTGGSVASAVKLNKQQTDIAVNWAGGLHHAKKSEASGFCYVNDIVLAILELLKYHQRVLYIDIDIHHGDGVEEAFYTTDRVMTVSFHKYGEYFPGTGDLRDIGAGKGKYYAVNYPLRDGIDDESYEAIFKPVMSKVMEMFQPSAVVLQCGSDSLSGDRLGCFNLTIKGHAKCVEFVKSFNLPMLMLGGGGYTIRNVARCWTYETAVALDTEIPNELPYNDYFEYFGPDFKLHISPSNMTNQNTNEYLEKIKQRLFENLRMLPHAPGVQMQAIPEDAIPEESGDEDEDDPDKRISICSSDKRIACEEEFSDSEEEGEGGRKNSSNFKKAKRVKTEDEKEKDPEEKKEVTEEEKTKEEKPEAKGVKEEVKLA
HDAC-6, sequence (Q9UBN7 whole entry): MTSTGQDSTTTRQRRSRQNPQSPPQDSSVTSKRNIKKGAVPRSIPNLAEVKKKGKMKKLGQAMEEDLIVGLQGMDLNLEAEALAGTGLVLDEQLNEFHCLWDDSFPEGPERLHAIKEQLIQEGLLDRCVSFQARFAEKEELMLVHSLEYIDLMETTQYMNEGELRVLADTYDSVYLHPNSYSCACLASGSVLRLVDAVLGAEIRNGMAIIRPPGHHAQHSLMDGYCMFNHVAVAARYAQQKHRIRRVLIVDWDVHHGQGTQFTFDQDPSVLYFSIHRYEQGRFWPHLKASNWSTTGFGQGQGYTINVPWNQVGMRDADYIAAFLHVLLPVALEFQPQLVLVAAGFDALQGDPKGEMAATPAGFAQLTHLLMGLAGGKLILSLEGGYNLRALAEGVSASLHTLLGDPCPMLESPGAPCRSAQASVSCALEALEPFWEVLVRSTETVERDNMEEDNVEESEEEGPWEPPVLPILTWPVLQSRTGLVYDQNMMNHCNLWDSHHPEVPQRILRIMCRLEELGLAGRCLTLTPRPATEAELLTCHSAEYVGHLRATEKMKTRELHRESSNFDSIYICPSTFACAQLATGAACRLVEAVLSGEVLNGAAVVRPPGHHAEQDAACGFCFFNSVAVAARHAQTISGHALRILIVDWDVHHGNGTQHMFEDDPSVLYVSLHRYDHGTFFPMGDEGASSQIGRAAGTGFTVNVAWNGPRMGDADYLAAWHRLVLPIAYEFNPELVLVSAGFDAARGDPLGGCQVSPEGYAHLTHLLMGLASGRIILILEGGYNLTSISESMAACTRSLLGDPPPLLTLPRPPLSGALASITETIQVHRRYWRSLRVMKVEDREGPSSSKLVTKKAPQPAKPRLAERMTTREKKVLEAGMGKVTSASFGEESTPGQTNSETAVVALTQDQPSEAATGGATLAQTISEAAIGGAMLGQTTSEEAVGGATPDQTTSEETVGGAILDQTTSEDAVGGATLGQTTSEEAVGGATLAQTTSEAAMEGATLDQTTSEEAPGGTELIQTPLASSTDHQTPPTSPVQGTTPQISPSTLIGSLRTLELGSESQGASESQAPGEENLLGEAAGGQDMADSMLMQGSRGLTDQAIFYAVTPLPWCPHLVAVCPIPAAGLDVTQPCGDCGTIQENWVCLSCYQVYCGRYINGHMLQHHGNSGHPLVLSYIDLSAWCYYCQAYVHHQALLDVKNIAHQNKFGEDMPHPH
CDK4/CycD3, sequence (P11802 whole entry, species assumed): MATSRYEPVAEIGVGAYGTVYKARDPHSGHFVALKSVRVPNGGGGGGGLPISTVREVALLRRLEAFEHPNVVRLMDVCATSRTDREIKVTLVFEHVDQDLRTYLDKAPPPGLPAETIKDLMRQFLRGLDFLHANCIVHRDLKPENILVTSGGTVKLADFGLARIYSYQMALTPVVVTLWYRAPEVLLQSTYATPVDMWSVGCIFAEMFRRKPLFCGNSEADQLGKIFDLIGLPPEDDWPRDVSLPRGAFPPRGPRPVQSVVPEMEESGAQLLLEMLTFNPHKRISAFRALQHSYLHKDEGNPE
CDK4/CycD3, sequence (P30281 whole entry partner, species assumed): as the sequence (P30281 whole entry partner, species assumed) above

`CC(=O)c1c(C)c2cnc(Nc3ccc(C(=O)NO)cn3)nc2n(C2CCCC2)c1=O` [Compound 17, 6-((6-acetyl-8-cyclopentyl-5-methyl-7-oxo-7,8-dihydropyrido[2,3-d]pyrimidin-2-yl)amino)-N-hydroxynicotinamide] gave an IC50 (CDK4/CycD3; [1]) of less than 50 nM, an IC50 (CDK6/cycD3) of less than 500 nM and an IC50 (CDK2/CycA2) greater than 1000 nM. It also gave an IC50 (HDAC-1) of less than 500 nM and an IC50 (HDAC-6) of less than 50 nM.

`CC(=O)c1c(C)c2cnc(Nc3ccc(N4CC5CNCC(C4)C5(F)F)cn3)nc2n(C2CCCC2)c1=O` [Compound 4-2, 6-acetyl-8-cyclopentyl-2-(5-(9,9-difluoro-3,7-diazabicyclo[3.3.1]nonan-3-yl)pyridin-2-ylamino)-5-methylpyrido[2,3-d]pyrimidin-7(8H)-one] showed an IC50 (CDK4/CycD3; [1]) of less than 50 nM and an IC50 (CDK6/cycD3) of less than 100 nM.

Compound `CC(=O)c1c(C)c2cnc(Nc3ccc(N4CCCC5(CCNCC5)C4)cn3)nc2n(C2CCCC2)c1=O` [Compound 6, 2-(5-(2,9-diazaspiro[5.5]undecan-2-yl)pyridin-2-ylamino)-6-acetyl-8-cyclopentyl-5-methylpyrido[2,3-d]pyrimidin-7(8H)-one] has an IC50 (CDK4/CycD3; [1]) of less than 10 nM, an IC50 (CDK6/cycD3) of less than 25 nM and an IC50 (CDK2/CycA2) greater than 5000 nM.

`CC(=O)c1c(C)c2cnc(Nc3ccc(N4CCN(C(=O)CCCCCCC(=O)NO)CC4)cn3)nc2n(C2CCCC2)c1=O` [Compound 12, 8-(4-(6-(6-acetyl-8-cyclopentyl-5-methyl-7-oxo-7,8-dihydropyrido[2,3-d]pyrimidin-2-ylamino)pyridin-3-yl)piperazin-1-yl)-N-hydroxy-8-oxooctanamide] was tested, and the IC50 (CDK4/CycD3; [1]) was less than 10 nM, the IC50 (CDK6/cycD3) was less than 25 nM and the IC50 (CDK2/CycA2) was greater than 10000 nM. It also gave an IC50 (HDAC-1) of less than 50 nM and an IC50 (HDAC-6) of less than 10 nM.

With `CC(=O)c1c(C)c2cnc(Nc3ccc(N4CC5CNCC(C4)C5(F)F)cn3)nc2n(C2CCCC2)c1=O` (single isomer, unassigned) [Compound 4-1, 6-acetyl-8-cyclopentyl-2-(5-(9,9-difluoro-3,7-diazabicyclo[3.3.1]nonan-3-yl)pyridin-2-ylamino)-5-methylpyrido[2,3-d]pyrimidin-7(8H)-one] the IC50 (CDK4/CycD3; [1]) was less than 25 nM, the IC50 (CDK6/cycD3) was less than 100 nM and the IC50 (CDK2/CycA2) was less than 1000 nM.

`CC(=O)c1c(C)c2cnc(Nc3ccc(N4CCC5(CC4)CNC5)cn3)nc2n(C2CCCC2)c1=O` [Compound 3, 2-(5-(2,7-Diazaspiro[3.5]nonan-7-yl)pyridin-2-ylamino)-6-acetyl-8-cyclopentyl-5-methylpyrido[2,3-d]pyrimidin-7(8H)-one] showed an IC50 (CDK4/CycD3; [1]) of less than 10 nM, an IC50 (CDK6/cycD3) of less than 25 nM and an IC50 (CDK2/CycA2) greater than 5000 nM.

In the case of `CC(=O)c1c(C)c2cnc(Nc3ccc(N4CCN(C(=O)CCCC(=O)NO)CC4)cn3)nc2n(C2CCCC2)c1=O` [Compound 13, 5-(4-(6-(6-acetyl-8-cyclopentyl-5-methyl-7-oxo-7,8-dihydropyrido[2,3-d]pyrimidin-2-ylamino)pyridin-3-yl)piperazin-1-yl)-N-hydroxy-5-oxopentanamide], the IC50 (CDK4/CycD3; [1]) is reported as less than 25 nM, the IC50 (CDK6/cycD3) is reported as less than 50 nM and the IC50 (CDK2/CycA2) is reported as greater than 1000 nM.

`CC(=O)c1c(C)c2cnc(Nc3ccc(N4CC5CNCC(C5)C4)cn3)nc2n(C2CCCC2)c1=O` [Compound 1, 2-(5-(3,7-diazabicyclo[3.3.1]nonan-3-yl)pyridin-2-ylamino)-6-acetyl-8-cyclopentyl-5-methylpyrido[2,3-d]pyrimidin-7(8H)-one] showed an IC50 (CDK4/CycD3; [1]) of less than 10 nM, an IC50 (CDK6/cycD3) of less than 25 nM and an IC50 (CDK2/CycA2) greater than 5000 nM.

Work on `CC(=O)c1c(C)c2cnc(Nc3ccc(N4CCN(CCCCCCCC(=O)NO)CC4)cn3)nc2n(C2CCCC2)c1=O` [Compound 15, 8-(4-(6-((6-acetyl-8-cyclopentyl-5-methyl-7-oxo-7,8-dihydropyrido[2,3-d]pyrimidin-2-yl)amino)pyridin-3-yl)piperazin-1-yl)-N-hydroxyoctanamide] yielded an IC50 (CDK4/CycD3; [1]) of less than 10 nM, an IC50 (CDK6/cycD3) of less than 25 nM and an IC50 (CDK2/CycA2) greater than 1000 nM. The IC50 (HDAC-1) was less than 500 nM and the IC50 (HDAC-6) was less than 50 nM.

For `CC(=O)c1c(C)c2cnc(Nc3ccc(N4CCN(Cc5ccc(C(=O)NO)cc5)CC4)cn3)nc2n(C2CCCC2)c1=O` [Compound 16, 4-((4-(6-((6-acetyl-8-cyclopentyl-5-methyl-7-oxo-7,8-dihydropyrido[2,3-d]pyrimidin-2-yl)amino)pyridin-3-yl)piperazin-1-yl)methyl)-N-hydroxybenzamide], the IC50 (CDK4/CycD3; [1]) was less than 10 nM, the IC50 (CDK6/cycD3) was less than 50 nM and the IC50 (CDK2/CycA2) was greater than 1000 nM. The IC50 (HDAC-1) was less than 500 nM and the IC50 (HDAC-6) was less than 10 nM.

Work on `CC(=O)c1c(C)c2cnc(Nc3ccc(N4CCN(CCCCCCC(=O)NO)CC4)cn3)nc2n(C2CCCC2)c1=O` [Compound 14, 7-(4-(6-(6-acetyl-8-cyclopentyl-5-methyl-7-oxo-7,8-dihydropyrido[2,3-d]pyrimidin-2-ylamino)pyridin-3-yl)piperazin-1-yl)-N-hydroxyheptanamide] yielded an IC50 (CDK4/CycD3; [1]) of less than 10 nM, an IC50 (CDK6/cycD3) of less than 10 nM and an IC50 (HDAC-1) of less than 500 nM. It also gave an IC50 (HDAC-6) of less than 50 nM.

`CC(=O)c1c(C)c2cnc(Nc3ccc(N4CC5CNCC(C4)O5)cn3)nc2n(C2CCCC2)c1=O` [Compound 2, 2-(5-(9-oxa-3,7-diazabicyclo[3.3.1]nonan-3-yl)pyridin-2-ylamino)-6-acetyl-8-cyclopentyl-5-methylpyrido[2,3-d]pyrimidin-7(8H)-one] showed an IC50 (CDK4/CycD3; [1]) of less than 25 nM, an IC50 (CDK6/cycD3) of less than 100 nM and an IC50 (CDK2/CycA2) greater than 5000 nM.

`CC(=O)c1c(C)c2cnc(Nc3ccc4c(n3)CCNC4)nc2n(C2CCCC2)c1=O` [Compound 8, 6-acetyl-8-cyclopentyl-5-methyl-2-(5,6,7,8-tetrahydro-1,6-naphthyridin-2-ylamino)pyrido[2,3-d]pyrimidin-7(8H)-one] gave an IC50 (CDK4/CycD3) of less than 10 nM, an IC50 (CDK6/cycD3) of less than 100 nM and an IC50 (CDK2/CycA2) greater than 1000 nM.

`CC(=O)c1c(C)c2cnc(Nc3ccc(C(=O)NCCCCCCC(=O)NO)cn3)nc2n(C2CCCC2)c1=O` [Compound 18, 6-((6-acetyl-8-cyclopentyl-5-methyl-7-oxo-7,8-dihydropyrido[2,3-d]pyrimidin-2-yl)amino)-N-(7-(hydroxyamino)-7-oxoheptyl)nicotinamide] showed an IC50 (CDK4/CycD3; [1]) of less than 50 nM, an IC50 (CDK6/cycD3) of less than 1000 nM and an IC50 (CDK2/CycA2) greater than 1000 nM. The IC50 (HDAC-1) was less than 50 nM and the IC50 (HDAC-6) was less than 10 nM.
